Columns and labels:
NUAK2 = biological target: T1, NUAK2 (Homo sapiens, UniProt Q9H093); assay: Kinase activity inhibition assay, P81 filter paper binding hot-spot technique (33P-ATP, CHKtide substrate); type: biochemical; settings: final concentration of NUAK2 50 nM; 20 µM CHKtide substrate; incubated 2 hours at room temperature; read-out: IC50 (nM) of Test Compounds of the Present Application against NUAK2
T1 sequence (Q9H093 1-628): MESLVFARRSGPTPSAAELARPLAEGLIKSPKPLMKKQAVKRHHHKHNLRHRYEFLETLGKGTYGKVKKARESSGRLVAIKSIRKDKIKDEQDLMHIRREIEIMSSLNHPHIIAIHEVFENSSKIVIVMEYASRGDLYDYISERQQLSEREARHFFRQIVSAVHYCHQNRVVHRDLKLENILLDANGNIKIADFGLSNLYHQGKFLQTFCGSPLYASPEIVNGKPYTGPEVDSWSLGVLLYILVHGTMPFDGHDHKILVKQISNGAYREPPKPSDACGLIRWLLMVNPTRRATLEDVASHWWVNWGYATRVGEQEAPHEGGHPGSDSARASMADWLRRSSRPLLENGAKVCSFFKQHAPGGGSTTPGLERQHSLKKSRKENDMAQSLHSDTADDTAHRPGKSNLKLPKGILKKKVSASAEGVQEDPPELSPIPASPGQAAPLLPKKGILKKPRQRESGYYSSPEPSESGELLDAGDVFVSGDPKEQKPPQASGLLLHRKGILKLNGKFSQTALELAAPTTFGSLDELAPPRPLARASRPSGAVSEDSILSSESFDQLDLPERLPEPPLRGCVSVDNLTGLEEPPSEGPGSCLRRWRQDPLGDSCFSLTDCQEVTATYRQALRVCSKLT
Method: (§1) The inhibitory activity of the pyrimidinamine small molecules involved in the present application against NUAK1 and NUAK2 kinases was determined using a kinase activity assay based on the P81 filter paper binding hot-spot technique (Nat Biotechnol. 2011, 29:1039). A brief description is as follows:
(§2) The assay buffer system contained 20 mM Hepes (pH 7.5), 10 mM MgCl2, 1 mM EGTA, 0.01% Brij35 (L23 polyoxyethylene lauryl ether), 0.02 mg/mL BSA (bovine serum albumin), 0.1 mM Na3VO4, 2 mM DTT, and 1% DMSO.
(§3) • 1. A 20 µM substrate solution was prepared with freshly prepared test buffer and CHKtide peptide fragments (Sanchez Y. Science. 1997, 277: 1497-1501) were used as a substrate. • 2. Kinases were added and mixed gently (a final concentration of NUAK1 was 10 nM; and a final concentration of NUAK2 was 50 nM). • 3. Test compounds dissolved in 100% DMSO were each added to the above kinase reaction mixture solution via Acoustic Droplet Ejection (Echo550; nanoliter) and the mixture was incubated for 5 minutes at room temperature. • 4. ^33P-labeled ATP (a ratio of unlabeled ATP to labeled ATP was 25:1 or 2.5:1) was added. • 5. The mixture was incubated for 2 hours at room temperature. • 6. Kinase activity was tested using the P81 filter paper combined with hotspot technology.
(§4) The IC50 values of the test compounds against NUAK1/NUAK2 were calculated according to the above test. For specific results, see Table 1.
(§5) The IC50 values were calculated by using a formula derived from sigmoidal dose-response curve (variable slope):
(§6) Y = Bottom + (Top-Bottom)/(1+10^((LogEC50-X)*Slope, where X is the logarithm of compound concentration, Y is the response (inhibition rate of kinase activity), and Y rises from bottom to top along the sigmoidal curve as the concentration increases. Table 1: IC50 (nM) of Test Compounds of the Present Application against NUAK1/NUAK2

NUAK1 = biological target: T2, NUAK1 (Homo sapiens, UniProt O60285); assay: as above; type: biochemical; settings: final concentration of NUAK1 10 nM; 20 µM CHKtide substrate; incubated 2 hours at room temperature; read-out: IC50 (nM) of Test Compounds of the Present Application against NUAK1
T2 sequence (O60285 1-661): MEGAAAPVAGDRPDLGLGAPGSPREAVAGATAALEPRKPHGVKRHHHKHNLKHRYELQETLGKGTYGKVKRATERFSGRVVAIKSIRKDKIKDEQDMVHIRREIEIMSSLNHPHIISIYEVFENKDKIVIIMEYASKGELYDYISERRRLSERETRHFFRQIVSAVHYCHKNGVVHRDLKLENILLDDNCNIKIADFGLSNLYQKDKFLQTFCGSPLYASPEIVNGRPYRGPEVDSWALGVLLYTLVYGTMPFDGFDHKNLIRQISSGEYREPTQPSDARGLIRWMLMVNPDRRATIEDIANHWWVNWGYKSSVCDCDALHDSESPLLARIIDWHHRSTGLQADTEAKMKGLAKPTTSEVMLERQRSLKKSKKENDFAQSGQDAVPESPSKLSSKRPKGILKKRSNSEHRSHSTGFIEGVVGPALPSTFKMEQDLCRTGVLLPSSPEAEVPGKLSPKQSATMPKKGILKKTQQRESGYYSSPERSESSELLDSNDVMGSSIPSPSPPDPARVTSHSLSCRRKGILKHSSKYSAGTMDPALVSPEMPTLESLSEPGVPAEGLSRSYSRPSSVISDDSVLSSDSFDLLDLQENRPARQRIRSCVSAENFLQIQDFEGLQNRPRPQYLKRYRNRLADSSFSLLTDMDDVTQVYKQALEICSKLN
Method: as §1, §2, §3, §4, §5, §6

Structure (SMILES) | IC50 (NUAK2) | IC50 (NUAK1)
O=C(Nc1cccc(Oc2nc(Nc3cnn(C4CCNCC4)c3)ncc2Cl)c1)C1CC1(F)F (stereo not shown) [TDM-181127, N-(3-((5-Chloro-2-((1-(piperidin-4-yl)-1H-pyrazol-4-yl)amino)pyrimidin-4-yl)oxy)phenyl)-2,2-difluorocyclopropane-1-carboxamide] | 352 nM | 161 nM
COc1cc(N2CCN(C)CC2)ccc1Nc1ncc(Cl)c(Oc2ccccc2NC(=O)C2CC2)n1 [TDM-181132, N-(2-((5-Chloro-2-((2-methoxy-4-(4-methylpiperazin-1-yl)phenyl)amino)pyrimidin-4-yl)oxy)phenyl)cyclopropanecarboxamide] | 37 nM | 24 nM
CN1CCN(c2ccc(Nc3ncc(Cl)c(N(C)c4cccc(NC(=O)[C@@H]5CC5(F)F)c4)n3)cc2)CC1 [TDM-181131, (S)-N-(3-((5-Chloro-2-((4-(4-methylpiperazin-1-yl)phenyl)amino)pyrimidin-4-yl)(methyl)amino)phenyl)-2,2-difluorocyclopropane-1-carboxamide] | 635 nM | 81 nM

Other lines, results leading:

IC50 (NUAK2) | IC50 (NUAK1) | Structure (SMILES)
13 nM | 4 nM | COc1cc(N2CCN(C)CC2)ccc1Nc1ncc(Cl)c(Oc2ccccc2NC(=O)[C@@H]2CC2(F)F)n1 [TDM-181160, (S)-N-(2-((5-Chloro-2-((2-methoxy-4-(4-methylpiperazin-1-yl)phenyl)amino)pyrimidin-4-yl)oxy)phenyl)-2,2-difluorocyclopropane-1-carboxamide]
311 nM | 21 nM | CN1CCN(c2ccc(Nc3ncc(Cl)c(Oc4cccc(NC(=O)C5CC5(F)F)c4)n3)cc2)CC1 (stereo not shown) [TDM-181120]

— EP4745127A1, “PYRIMIDINAMINE NUAK INHIBITOR AS WELL AS PREPARATION METHOD THEREFOR AND USE THEREOF” (Technoderma Medicines Inc., priority 2023, dated 2025)
